Patent US20240252410A1, “COMPOUNDS FOR USE IN KERATIN TREATMENT” (CrossChem Limited, priority 2023, published 2024)

Tests used:
[1] = Hair tensile strength test (digital force gauge); conditions: for % Increase in tensile strength relative to control: control 100% DI water
Description: (§1) Hair tensile strength can be measured according to the following general method. “Test Compound” can be any compound described herein. • 1. Collect about 3 hair strands from tress; • 2. Clamp both ends of a single hair strand and pull taut; • 3. Line up ruler with hair strand and cut a 2.75 cm section; • 4. Repeat steps 2-3 until 30 segments are produced; • 5. Create a specific w/w % solution of deionized water and Test Compound (e.g., Compound (1)) in 50 ml beaker; • 6. Saturate the hair for a specific amount of time in the solution, then remove and dry for 30 minutes; • 7. Using a 4 decimal precision balance, weigh all hairs at once and calculate the average; • 8. Insert hair into the digital force gauge; • 9. Separate the two clamps until the hair has broken into two separate pieces; and • 10. Note the maximum force required to break the hair as well as the distance the digital force gauge has moved.
(§2) Control experiments can also be conducted according to the procedure described above, for example by omitting Test Compound from the solution or replacing Test Compound with compound for comparison (e.g., glycolic acid).

[2] = Hair elongation percentage test; conditions: for % Increase in elongation percentage relative to control: control 100% DI water
Description: as §1, §2

[3] = Elongation of bleached hair at break stress (Formulation 1); conditions: 5 w/w % solution in DI water
Description: A combination formulation (Formulation 1) comprising Compound (1) and glycolic acid as an aqueous mixture was tested. Formulation 1 comprises a 1:1 ratio (by weight) of Compound (1) to glycolic acid. To prepare Formulation 1, a mixture containing 50 w/w % Compound (1) and 50 w/w % glycolic acid (crystalline) was prepared (Mixture A). Mixture A was diluted with deionized (DI) water (aqua) until the solution was 5 w/wt % Mixture A.
Formulation 1 was independently analyzed to determine whether elongation of bleached hair at break stress increased compared to both control and glycolic acid solutions. The glycolic acid solution was a 5 w/w % glycolic acid solution in DI water. The control was DI water alone.

[4] = 1 w/w % solution in deionized water
[5] = 2.5 w/w % solution in deionized water

N[C@@H](CO)C(=O)OCC(=O)O [Compound (1)]
Tensile strength (Gf/Denier) [1, 4]: 1.210 gf/denier | % Increase in tensile strength relative to control ([1]; 1 w/w % solution): 16.9% | Tensile strength (Gf/Denier) [1, 5]: 1.490 gf/denier | Tensile strength of hair compared to glycolic acid (in words) ([1]; 2.5 w/w % solution vs 2.5 w/w % glycolic acid, FIG. 2): significantly increases tensile strength of hair as compared to glycolic acid | % Increase in tensile strength relative to control ([1]; 2.5 w/w % solution): 43.9% | Tensile strength of hair relative to control (in words) ([1]; control hair treated 100% DI water, FIG. 1): significantly increases tensile strength of hair, relative to control | Elongation % [2, 4]: 25.4% | % Increase in elongation percentage relative to control ([2]; 1 w/w % solution): 0.67% | Elongation % [2, 5]: 29.9% | Elongation percentage of hair compared to glycolic acid (in words) ([2]; 2.5 w/w % solution vs 2.5 w/w % glycolic acid, FIG. 4): significantly increases elongation percentage of hair | % Increase in elongation percentage relative to control ([2]; 2.5 w/w % solution): 18.51% | Elongation percentage of hair relative to control (in words) ([2]; control hair treated 100% DI water, FIG. 3): increases elongation percentage of hair

O=C(O)CO [Glycolic Acid, glycolic acid, reference compound]
Mean Elongation % [3]: 55.3% | Difference from Control (%) ([3]; control DI water): 7.38% | Tensile strength (Gf/Denier) [1, 5]: 1.219 gf/denier | % Increase in tensile strength relative to control ([1]; 2.5 w/w % solution): 17.8% | Elongation % [2, 5]: 26.71% | % Increase in elongation percentage relative to control ([2]; 2.5 w/w % solution): 5.87%
